Measurements published in paper PMC11513920, “Building Metabolically Stable and Potent Anti-HIV Thioether-Lipid Analogues of Tenofovir Exalidex: A thorough Pharmacological Analysis” (Journal of Medicinal Chemistry, 2024).
Where “and” joins values, the source holds several entries; their conditions need not be identical. Equal entries are not always repeated.

Columns and labels:
Human plasma stability = assay type: in vitro ADME; settings: both sexes, human, plasma
Experimental: Human plasma (lithium heparin (LiHep) mixed, gender pooled, 0.2 μm filtered) and mouse plasma (BALB/C, LiHep mixed, male pooled, 0.2 μm filtered) were purchased from BioIVT. Procaine (Sigma-Aldrich) served as a positive control for both human and mouse plasma experiments. […] Next, the human or mouse plasma (994 μL) was aliquoted into 1.5 mL Eppendorf tubes with duplicates (reactions A and B) being prepared for each compound. The plasma was then incubated at 37 °C for 10 min. […] This procedure provided duplicate experiments with a final volume of 1000 μL (<0.2% organic solvent content) and a final test compound concentration of 3 μM. Aliquots (100 μL) were removed from each reaction mixture at 0, 30, 60, 120, and 240 min time intervals and quenched with 150 μL of cold ISTD solution (2 μM 7-ethoxy-d5-coumarin in MeOH). […] The positive control reaction was conducted at a final volume of 1000 μL for a single run of each time point. Finally, the negative control experiment was conducted with test compounds in Dulbecco’s phosphate buffered saline without calcium and magnesium (DPBS, Fisher Scientific, 143 μL) and analyzed at the 240 min time point.
Plasma Stability Assay Setup Example
Test Compound: 994 µL Human or Mouse Plasma + 6.0 µL TC (500 µM, Vial A).
994 µL Human or Mouse Plasma + 6.0 µL TC (500 µM, Vial B).
Positive Control: 994 µL Human or Mouse Plasma + 6.0 µL Procaine (500 µM).
Negative Control: 142 µL DPBS (1X, pH 7.1-7.3) + 0.9 µL TC (500 µM).
Quenching Mixture: 150 µL MeOH with ISTD (2 µM d5-7-ethoxycoumarin).
Final Volume After Quenching: 250 µL (100 µL from reaction mixture and 150 µL quencher
solution; ISTD final concentration of 1.2 µM).
Human Plasma Stability of Compound 2a at 37 °C
Figure S29. In vitro human plasma stability of 2a (5 points over 240 min) with procaine serving

[1] = Mouse plasma pharmacokinetics after intravenous dose; assay type: in vivo, male C57BL/6 mice; settings: i.v. 3 mg/kg
Experimental: (§1) To compare the in vivo PK profiles to TXL and our previously reported drug lead 1 (Tables S19 and S26),[39] one group of male C57BL/6 mice were administered a single oral dose (p.o., 10 mg/kg) of 2a, 16g, or 16h (refer to Experimental Methods). Additionally, a separate group of mice were given a single intravenous dose (i.v., 3 mg/kg) of each prodrug to obtain plasma clearance (Cl), volume of distribution (Vd), and oral bioavailability data. Blood was sampled at 8 time points over 8 h (i.v.) or 24 h (p.o.) postdose, and plasma was isolated via centrifugation. Tissues (liver, kidney, and brain) were also harvested and homogenized at 3 time points over 24 h after oral dose. The concentrations of prodrug and TFV metabolite in each of these samples was then quantified using LC–MS/MS methodology.
(§2) Healthy male C57BL/6 mice (8–12 weeks old) weighing 20–30 g were procured from Global, India. Three mice were housed in each cage. Temperature and humidity were maintained at 22 ± 3 °C and 30–70%, respectively, and illumination was controlled to provide for 12 h light and 12 h dark cycles. Temperature and humidity were recorded by an autocontrolled data logger system. All animals were provided a laboratory rodent diet (Envigo Research private Ltd., Hyderabad). Reverse osmosis H2O treated with ultraviolet light was provided ad libitum.
(§3) Male mice were divided into two groups (n = 18 total, n = 9 per treatment group, n = 3 per time point, sparse sampling). One group was intravenously administered a solution of 2a, 16g, and 16h in 10% PEG-300, 10% Solutol HS-15, and 80% saline at 3 mg/kg with a dosing volume of 5 mL/kg. The second group was administered a solution of 2a, 16g, and 16h in 10% EtOH and 90% olive oil at 10 mg/kg via oral gavage with a dosing volume of 10 mL/kg.
(§4) Blood samples (approximately 60 μL) were collected from retro-orbital plexus under light isoflurane anesthesia such that the samples were obtained predose, as well as at eight time points post dose: 0.1, 0.25, 0.5, 1, 2, 4, 6, and 8 (i.v.) and 0.25, 0.5, 1, 2, 4, 8, 12, and 24 h (p.o.). Immediately after blood collection, plasma samples were harvested by centrifugation at 4000 rpm and 4 °C for 10 min and stored at −70 °C until LC–MS/MS analysis. Following blood collection from p.o. group, liver, kidney, and brain samples were collected (n = 3 per treatment group per time point) at 1, 4, and 24 h post dose. After isolation, tissue samples were rinsed three times with ice-cold saline and dried with blotting paper. Next, the tissue samples were homogenized using ice-cold PBS (pH = 7.4), and the resulting homogenates were stored below −70 °C until LC-MS/MS analysis. The total homogenate volume was 3 times the brain weight and 5 times the liver and kidney weight.
(§5) Areas under the concentration–time curves (AUC0–8h and AUC0–24h) were calculated via the linear trapezoidal rule[65] using GraphPad Prism v9. Furthermore, terminal elimination rate constants k were determined using linear regression (slope = −k) of the terminal portion of semilog-transformed concentration–time curves (Figures S44, S45, S47, S48, S50, and S51).

[2] = Mouse plasma pharmacokinetics after oral dose; assay type: in vivo, male C57BL/6 mice
Experimental: as §1, §2, §3, §4, §5

HEK293T cells = assay: Cellular cytotoxicity (cell viability, CellTiter 96 or resazurin); settings: HEK293T cells, 48 h, compounds formulated with HSA (5:1)
[3] = test system: HIV-1 subtype C strain MJ4; assay: Single-cycle non-replicating HIV pseudoviral luciferase assay in HEK293T cells; settings: Human immunodeficiency virus 1, HEK-293T, read-out: HIV IC50
Experimental: Second, HIV IC50 and cellular CC50 were determined with a pseudoviral, whole (HEK293T) cell, nonreplicative HIV assay, using the HIV-1 subtype C strain MJ4 (refer to Experimental Methods). To account for the unique amphiphilic properties of TXL and the novel HTP-based prodrugs, all compounds were formulated in a human serum albumin (HSA) solution (5:1 drug:protein).
Assessment of cytotoxicity and antiviral activity of all final compounds in vitro was conducted according to previously reported procedures.[39] In summary, human embryonic kidney (HEK293T) cells maintained in high glucose (25 mM), Dulbecco’s modified Eagle’s medium (DMEM) supplemented with fetal bovine serum (10%), sodium pyruvate (1 mM), L-glutamine (2 mM), HEPES (25 mM), and gentamicin (50 μg/mL) were used for determinations. The cells were maintained in an incubator at 37 °C under 5% CO2 in a humidified atmosphere. For both cytotoxicity and antiviral screening, all compounds were evaluated in duplicate in at least two independent experiments. All final compounds were formulated with human serum albumin (HSA, 5:1 compound to HSA molar ratio) and subsequently diluted with complete DMEM to 200 μM. Fifty microliters of test compound serial dilutions (3-fold) were prepared in 96-well culture plates, after which 50 μL of HEK293T cells (2 × 10^4 cells/well) was added. […] Cytotoxicity was then assessed by quantifying cell viability using the CellTiter 96 Aqueous One Solution Cell Proliferation Assay (Promega, Madison, WI) or resazurin sodium salt (cat# R7017, Merck, Darmstadt, Germany).[61] […] Antiviral activity was then assessed using a single-cycle, nonreplicating, envelope deleted HIV pseudoviral in vitro assay.[62],[63] The assay relies on the introduction of the firefly luciferase gene into HEK293T cells through infection with HIV-like viral particles, containing Reverse Transcriptase (RT) and Integrase (IN) from the HIV-1 subtype C strain MJ4.[64] The expression of the luciferase in the cells is directly proportional to the level of infection by the HIV-like viral particles and can be used to assess the inhibition of HIV-1 RT and IN. To evaluate anti-HIV activity, 3-fold serial dilutions of all final compounds were prepared in 50 μL over the noncytotoxic concentration range (as determined from the cytotoxicity screens described above) in 96-well culture plates. HEK293T cells (2 × 10^4 cells/well) and HIV-like viral particles, standardized to produce a luminescence signal of 1 × 10^6 relative light units (RLUs) in the growth medium only control, were combined, and 50 μL was added to the wells containing serially diluted test compounds. […] The expression of luciferase was subsequently quantified by adding 100 μL of the Bright-Glo Luciferase Assay substrate (Promega, Madison, WI) to each well of the 96-well plates. After incubation at rt for 3 min, luminescence was quantified on the GloMax Explorer Multimode Microplate Reader (Promega, Madison, WI).

[4] = male, C57BL/6, mouse, iv, prodrug
[5] = male, C57BL/6, mouse, po, plasma, prodrug, p.o. 10 mg/kg

For `C[C@H](Cn1cnc2c(N)ncnc21)OCP(=O)(O)OCCCSCCCCCCCCCCCCC1CCCCC1.N` [16h], the remaining at 4 h, 3 μM (Human plasma stability; relative percent remaining at 240 min) was > 95%, the half-life at 3 μM (Human plasma stability; 3 μM, 37 °C, 240 min course, read-out: human plasma t1/2) was > 4 h and the “k (terminal elimination rate constant)” value ([1]; 3 mg/kg) was 0.5743 and 0.574. It also gave a Vd at 8 h ([1]; male, C57BL/6, mouse, iv) of 8.97 L/kg, a clearance ([1]; male, C57BL/6, mouse, iv) of 85.8 mL/min/kg and a half-life at 8 h ([1]; male, C57BL/6, mouse, iv) of 1.21 h. It also gave a concentration at 0.1 h ([1]; male, C57BL/6, mouse, iv, 0.1 h, read-out: mean prodrug concentration in plasma) of 2380 ng/mL, a concentration at 0.25 h ([1]; male, C57BL/6, mouse, iv, 0.25 h, read-out: mean prodrug concentration in plasma) of 522 ng/mL and a concentration at 0.5 h ([1]; male, C57BL/6, mouse, iv, 0.5 h, read-out: mean prodrug concentration in plasma) of 406 ng/mL. It also gave a concentration at 1 h ([1]; male, C57BL/6, mouse, iv, 1 h, read-out: mean prodrug concentration in plasma) of 127 ng/mL, a concentration at 2 h ([1]; male, C57BL/6, mouse, iv, 2 h, read-out: mean prodrug concentration in plasma) of 17.4 ng/mL and a concentration at 4 h ([1]; male, C57BL/6, mouse, iv, 4 h, read-out: mean prodrug concentration in plasma) of 8.98 ng/mL. The concentration at 6 h ([1]; male, C57BL/6, mouse, iv, 6 h, read-out: mean prodrug concentration in plasma) was 3.65 ng/mL, the concentration at 8 h ([1]; male, C57BL/6, mouse, iv, 8 h, read-out: mean prodrug concentration in plasma) was 1.41 ng/mL and the Cmax at 8 h [1, 4] was 2380 ng/mL. It also gave a Tmax at 8 h [1, 4] of 6 min, an AUC(0-t) at 8 h ([1]; male, C57BL/6, mouse, iv, prodrug, read-out: AUC0–8h) of 583 ng·h/mL and a bioavailability ([2]; male, C57BL/6, mouse, plasma, oral, p.o. 10 mg/kg vs i.v. 3 mg/kg, read-out: %F (oral bioavailability)) of 55%. The bioavailability at 24 h ([2]; male, C57BL/6, mouse, plasma, po, p.o. 10 mg/kg vs i.v. 3 mg/kg, read-out: %F (oral bioavailability)) was 54.9%, the concentration at 0.25 h ([2]; male, C57BL/6, mouse, plasma, po, p.o. 10 mg/kg, 0.25 h, read-out: mean prodrug concentration in plasma) was 48.9 ng/mL and the concentration at 0.5 h ([2]; male, C57BL/6, mouse, plasma, po, p.o. 10 mg/kg, 0.5 h, read-out: mean prodrug concentration in plasma) was 79.1 ng/mL. For the same compound, the concentration at 1 h ([2]; male, C57BL/6, mouse, plasma, po, p.o. 10 mg/kg, 1 h, read-out: mean prodrug concentration in plasma) was 140 ng/mL, the concentration at 2 h ([2]; male, C57BL/6, mouse, plasma, po, p.o. 10 mg/kg, 2 h, read-out: mean prodrug concentration in plasma) was 195 ng/mL and the concentration at 4 h ([2]; male, C57BL/6, mouse, plasma, po, p.o. 10 mg/kg, 4 h, read-out: mean prodrug concentration in plasma) was 59.2 ng/mL. For the same compound, the concentration at 8 h ([2]; male, C57BL/6, mouse, plasma, po, p.o. 10 mg/kg, 8 h, read-out: mean prodrug concentration in plasma) was 36.1 ng/mL, the concentration at 12 h ([2]; male, C57BL/6, mouse, plasma, po, p.o. 10 mg/kg, 12 h, read-out: mean prodrug concentration in plasma) was 38.2 ng/mL and the concentration at 24 h ([2]; male, C57BL/6, mouse, plasma, po, p.o. 10 mg/kg, 24 h, BLQ = below LLOQ (0.58 ng/mL 2a, 0.62 ng/mL 16g), read-out: mean prodrug concentration in plasma) was 0.87 ng/mL. It also gave a half-life ([2]; male, C57BL/6, mouse, po, plasma, p.o. 10 mg/kg) of 3.07 h, a Cmax at 24 h [2, 5] of 195 ng/mL and a Tmax at 24 h [2, 5] of 2 h. For the same compound, the AUC(0-t) at 24 h ([2]; male, C57BL/6, mouse, po, plasma, prodrug, p.o. 10 mg/kg, read-out: AUC0–24h) was 1070 ng·h/mL, the “mean TFV concentration in plasma” value ([2]; p.o. 10 mg/kg of prodrug, 0.25 h, LLOQ 4.84 ng/mL) was “BLQ” and the Vd ([2]; plasma, p.o. 10 mg/kg) was 22.8 L/kg. The “k (terminal elimination rate constant)” value ([2]; plasma, p.o. 10 mg/kg, 10 mg/kg) was 0.2258 and 0.226, the CC50 (HEK293T cells) was 47.5 ± 8.7 µM and the IC50 [3] was 0.008 to 0.012 µM.
